Reference: the supplement of paper PMC10307832

Key:
Assay in all cases: relative viability (nuclei count vs DMSO), 5 days (fraction); higher = more cells survive
[1] = compound: CC1=CC(=CC=C1)NC2=NC(=CS2)C3=CC=NC=C3 + O=C(CCCCCCC(=O)Nc1ccccc1)NO [Vorinostat] (partner 1 µM)
How it was run: (§1)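 After 5 days of treatment, lung cancer cells in 1536-well plates were fixed and stained in a single step (final 0.05% Triton X-100, 1% formaldehyde, 1 ug/ml Hoechst) and their nuclei counted on 4× images. Treatment had been applied by pin tool the day after seeding as one drug alone or as a fixed anchor-drug dose with five library-drug doses (not always all listed) in √10 steps. Relative viability is the nuclei count of treated wells divided by that of vehicle wells, and values are medians of duplicate plates.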

Masitinib + Luminespib = compound: Cc1ccc(NC(=O)c2ccc(CN3CCN(C)CC3)cc2)cc1Nc1nc(-c2cccnc2)cs1 [Masitinib] + CCNC(=O)c1noc(-c2cc(C(C)C)c(O)cc2O)c1-c1ccc(CN2CCOCC2)cc1 [Luminespib] (partner 0.01 µM)
How it was run: as §1

Masitinib + Olaparib = compound: Cc1ccc(NC(=O)c2ccc(CN3CCN(C)CC3)cc2)cc1Nc1nc(-c2cccnc2)cs1 [Masitinib] + O=C(c1cc(Cc2n[nH]c(=O)c3ccccc23)ccc1F)N1CCN(C(=O)C2CC2)CC1 [Olaparib] (partner 8 µM)
How it was run: as §1

Masitinib + Tozasertib = compound: Cc1ccc(NC(=O)c2ccc(CN3CCN(C)CC3)cc2)cc1Nc1nc(-c2cccnc2)cs1 [Masitinib] + Cc1cc(Nc2cc(N3CCN(C)CC3)nc(Sc3ccc(NC(=O)C4CC4)cc3)n2)n[nH]1 [Tozasertib] (partner 0.1 µM)
How it was run: as §1

| Cell Line | relative viability ([1]; first compound 0.08 µM) | relative viability ([1]; first compound 0.253 µM) | relative viability ([1]; first compound 0.8 µM) | relative viability ([1]; first compound 2.53 µM) | relative viability ([1]; first compound 8 µM) | relative viability (Masitinib + Luminespib; first compound 0.01 µM) | relative viability (Masitinib + Luminespib; first compound 0.03162 µM) | relative viability (Masitinib + Luminespib; first compound 0.1 µM) | relative viability (Masitinib + Luminespib; first compound 0.3162 µM) | relative viability (Masitinib + Luminespib; first compound 1 µM) | relative viability (Masitinib + Olaparib; first compound 0.01 µM) | relative viability (Masitinib + Olaparib; first compound 0.03162 µM) | relative viability (Masitinib + Olaparib; first compound 0.1 µM) | relative viability (Masitinib + Olaparib; first compound 0.3162 µM) | relative viability (Masitinib + Olaparib; first compound 1 µM) | relative viability (Masitinib + Tozasertib; first compound 0.01 µM) | relative viability (Masitinib + Tozasertib; first compound 0.1 µM) | relative viability (Masitinib + Tozasertib; first compound 0.3162 µM) | relative viability (Masitinib + Tozasertib; first compound 1 µM) | relative viability (Masitinib + Tozasertib; first compound 0.03162 µM) |
| --- | --- | --- | --- | --- | --- | --- | --- | --- | --- | --- | --- | --- | --- | --- | --- | --- | --- | --- | --- | --- |
| NCI-H522 | 0.91 | 1.03 | 1.01 | 0.924 | 0.849 | 1.18 | 1.16 | 1.05 | 1.13 | 0.94 | 0.609 | 0.766 | 0.66 | 0.534 | 0.619 | 0.589 | 0.631 | 0.615 | 0.582 | – |
| HCC-15 | 0.678 | 0.645 | 0.773 | 0.67 | 0.636 | 0.306 | 0.389 | 0.37 | 0.476 | 0.141 | 0.628 | 0.669 | 0.753 | 0.735 | 0.82 | 0.491 | 0.433 | 0.387 | 0.243 | 0.426 |
| A-427 | 0.815 | 0.835 | 0.857 | 0.912 | 0.753 | – | 1.1 | 1.13 | 0.814 | 1.18 | 0.621 | 0.711 | 0.654 | 0.489 | 0.663 | – | – | 0.171 | 0.227 | 0.214 |
| NCI-H23 | 0.519 | 0.613 | 0.596 | 0.526 | 0.612 | – | 0.253 | 0.221 | 0.22 | 0.206 | 0.294 | 0.256 | 0.295 | 0.242 | 0.264 | 0.336 | 0.4 | 0.223 | 0.263 | 0.313 |
| NCI-H1755 | 0.621 | 0.761 | 0.726 | 0.611 | 0.605 | – | 0.528 | 0.414 | 0.697 | 0.331 | 0.769 | 0.832 | 0.893 | 0.849 | 0.755 | – | 0.57 | 0.57 | 0.454 | 0.573 |
| LU99A | 0.445 | 0.601 | 0.582 | 0.443 | 0.479 | 0.3 | 0.219 | 0.271 | 0.353 | 0.191 | 0.27 | 0.276 | 0.246 | 0.255 | 0.269 | 0.289 | 0.282 | 0.269 | 0.257 | 0.221 |
| PC-3 [JPC-3] | 0.579 | – | 0.811 | 0.575 | 0.803 | 0.741 | 0.571 | 0.774 | 0.783 | 0.677 | 0.985 | 1.11 | 1.22 | 0.932 | 1.11 | 0.879 | 0.917 | 0.824 | 0.878 | 0.782 |
| NCI-H1975 | 0.656 | 0.694 | 0.593 | 0.707 | 0.554 | 0.246 | 0.287 | 0.22 | 0.156 | 0.124 | 0.79 | 0.727 | 0.78 | 0.642 | 0.839 | 0.764 | 0.609 | – | 0.263 | 0.609 |
| NCI-H1703 | – | – | – | – | – | – | – | – | – | – | 0.308 | 0.267 | 0.231 | 0.174 | 0.277 | – | – | – | – | – |
| HCC-366 | 0.248 | 0.172 | 0.255 | 0.186 | 0.198 | – | – | – | – | – | – | 0.384 | 0.357 | 0.343 | 0.396 | – | – | 0.0725 | 0.0736 | 0.0721 |
| NCI-H1793 | 0.633 | 0.616 | 0.771 | 0.632 | 0.8 | 0.165 | 0.166 | 0.182 | 0.162 | 0.567 | 0.893 | 0.777 | 1.04 | 1.08 | 0.768 | 0.337 | 0.33 | 0.238 | 0.256 | 0.309 |
| NCI-H727 | 0.967 | – | 1.1 | – | 1.24 | 0.494 | 0.324 | 0.831 | 0.341 | 0.416 | 0.76 | 0.774 | 0.686 | 0.819 | 0.676 | 0.691 | 0.69 | 0.664 | 0.548 | 0.597 |
| RERF-LC-KJ | 0.662 | 0.541 | 0.526 | 0.373 | 0.279 | 1.41 | 1.15 | 1.42 | 1.23 | 1.27 | 0.935 | 0.916 | 0.978 | 0.672 | 0.852 | 0.558 | 0.492 | 0.465 | 0.336 | 0.41 |
| NCI-H1623 | – | – | – | – | – | 0.493 | 0.451 | 0.814 | 0.427 | 0.506 | – | – | – | – | – | 0.447 | 0.477 | 0.398 | 0.35 | 0.548 |
| Calu-6 | – | – | – | – | – | – | – | – | – | – | 0.53 | 0.656 | 0.63 | 0.563 | 0.547 | – | – | – | – | – |
| LC-2-ad | 0.607 | 0.647 | 0.688 | 0.624 | 0.658 | 0.918 | 1.18 | 1.04 | 0.916 | 0.929 | 0.708 | 0.715 | 0.719 | 0.702 | 0.73 | 0.426 | 0.435 | 0.391 | 0.384 | 0.443 |
| CAL-12T | 0.565 | 0.74 | 0.85 | 0.609 | 0.716 | 0.513 | 0.403 | 0.363 | 0.469 | 0.306 | 0.716 | 0.696 | 0.688 | 0.712 | 0.708 | 0.303 | 0.307 | 0.192 | 0.234 | 0.282 |
| SK-LU-1 | 0.76 | 0.796 | 0.53 | 0.799 | 0.727 | 0.208 | 0.195 | 0.2 | 0.221 | 0.193 | 0.419 | 0.486 | 0.436 | 0.524 | 0.497 | 0.349 | 0.319 | 0.35 | 0.292 | 0.299 |
| NCI-H1651 | 0.562 | 0.547 | 0.569 | 0.464 | 0.596 | 0.823 | 1.23 | 0.822 | 0.75 | 0.769 | 0.155 | 0.216 | 0.177 | 0.181 | 0.169 | 0.743 | 0.685 | 0.484 | 0.583 | 0.68 |
